Among the test systems are NCI-H23; SF-268; SNB-19; SF-295; RPMI-8226; HCT-116; HT-29; NCI-H522; SNB-75; MCF7; MDA-MB-435; OVCAR-8; SN12C; UACC-257; MDA-N; OVCAR-5; SK-MEL-2; HOP-92; EKVX; 786-0.
Experiment in all cases: NCI-60 cell line screen, 48 h

We go through ten molecules from ChEMBL document CHEMBL1201862, “PubChem BioAssay data set” (2004).

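Following 48 hours of exposure in 96-well plates, responses at five concentrations were used to interpolate endpoints linearly. Abbreviation: GI50, concentration required for 50% inhibition of growth.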 Active and inactive are the calls of the source. No stated cut-off is given here; in the data, active = GI50 up to about 1.1 µM and inactive = higher.

For `c1ccc2c(c1)Cn1c-2nc2ccccc21`, the GI50 is > 100 µM (inactive) in the assay on NCI-H23; > 100 µM (inactive) in the assay on SF-268; > 100 µM (inactive) in the assay on SNB-19; > 100 µM (inactive) in the assay with SF-295; 65 µM (inactive) in the assay on RPMI-8226; > 100 µM (inactive) in the assay on HCT-116. Further, the GI50 was > 100 µM (inactive) in the assay with HT-29; 43.1 µM (inactive) in the assay with NCI-H522; < 0.01 µM (active) in the assay on SNB-75; > 100 µM (inactive) in the assay with MCF7; > 100 µM (inactive) with MDA-MB-435; > 100 µM (inactive) in the assay on OVCAR-8. Further, the GI50 with SN12C, with UACC-257, in the assay with MDA-N, in the assay on OVCAR-5, with SK-MEL-2 and with HOP-92 was > 100 µM (inactive) throughout. The GI50 with EKVX and in the assay on 786-0 was > 100 µM (inactive) in each case.

Regarding `N#CC1=C(N)OC(c2ccc([N+](=O)[O-])cc2)C1(C#N)C#N` (stereo not drawn), the GI50 is 15.3 µM (inactive) in the assay with NCI-H23; 23.3 µM (inactive) in the assay with SF-268; 22.4 µM (inactive) with SNB-19; 33.7 µM (inactive) in the assay with SF-295; 7.78 µM (inactive) in the assay on RPMI-8226; 9.77 µM (inactive) in the assay with HCT-116. Further, the GI50 in the assay with HT-29 was 9.14 µM (inactive); in the assay with NCI-H522, 6.62 µM (inactive); in the assay on SNB-75, 20.6 µM (inactive); with MCF7, 15.6 µM (inactive); with MDA-MB-435 it was 17 µM (inactive); with OVCAR-8, 17.5 µM (inactive). Besides, the GI50 in the assay on SN12C was 14.5 µM (inactive); in the assay with UACC-257, 13.1 µM (inactive); in the assay with MDA-N it was 9.18 µM (inactive); with OVCAR-5, 18.7 µM (inactive); in the assay on SK-MEL-2, 14.6 µM (inactive); with HOP-92, 7.94 µM (inactive). Moreover, the figures for the GI50 with EKVX and in the assay with 786-0 were 14.2 µM (inactive) and 9.66 µM (inactive), respectively.

With `O=C1c2ccccc2C(=O)c2c1ccc1c2OCO1`, the GI50 in the assay on NCI-H23, with SF-268, in the assay with SNB-19, in the assay with SF-295, in the assay with RPMI-8226 and in the assay on HCT-116 was > 100 µM (inactive) throughout. Also, the GI50 in the assay with HT-29 is > 100 µM (inactive); in the assay on NCI-H522, > 100 µM (inactive); with SNB-75, 23.1 µM (inactive); in the assay with MCF7 it was > 100 µM (inactive); in the assay with MDA-MB-435 it was > 100 µM (inactive); with OVCAR-8 it was > 100 µM (inactive). In addition, the GI50 with SN12C, in the assay with UACC-257, in the assay with MDA-N, in the assay with OVCAR-5, in the assay with SK-MEL-2 and in the assay on HOP-92 was > 100 µM (inactive) in each case. Besides, the GI50 in the assay with EKVX and in the assay with 786-0 was > 100 µM (inactive) each time.

`Cc1ccc(-c2c(C#N)c(-c3ccccc3)n(NS(=O)(=O)c3ccc(C)cc3)c(=O)c2C#N)cc1`: the GI50 in the assay on SF-268 was 90.8 µM (inactive); in the assay on SNB-19, 50.8 µM (inactive); with SF-295 it was 41.3 µM (inactive); in the assay with RPMI-8226, 8.36 µM (inactive); in the assay on HCT-116, 35.1 µM (inactive); in the assay with HT-29, 69.2 µM (inactive). The GI50 in the assay on NCI-H522 is 39.2 µM (inactive); in the assay on SNB-75, 92.5 µM (inactive); with MCF7, 37 µM (inactive); with MDA-MB-435 it was 61.7 µM (inactive); in the assay with OVCAR-8, 41.9 µM (inactive); in the assay with SN12C, 82.6 µM (inactive). Besides, the GI50 in the assay with UACC-257 was > 100 µM (inactive); in the assay on MDA-N, 71.8 µM (inactive); in the assay on OVCAR-5, > 100 µM (inactive); in the assay on SK-MEL-2, 35.8 µM (inactive); in the assay on HOP-92, 11.4 µM (inactive); in the assay on EKVX it was 89.9 µM (inactive). Besides, in the assay with 786-0, the GI50 was 59.4 µM (inactive).

Take `CCOC(=O)c1c(SCCN2CCCC2)n(-c2ccccc2)c(=S)n(-c2ccccc2)c1=O`: the GI50 in the assay on NCI-H23 is 9.57 µM (inactive); in the assay with SF-268 it was 4.85 µM (inactive); in the assay with SNB-19, 17.4 µM (inactive); in the assay on SF-295, 28.3 µM (inactive); in the assay on RPMI-8226, 2.18 µM (inactive); in the assay on HCT-116, 4.27 µM (inactive). The GI50 was 4.89 µM (inactive) in the assay with HT-29; 1.77 µM (inactive) in the assay on NCI-H522; 6.93 µM (inactive) with SNB-75; 1.19 µM (inactive) in the assay on MCF7; 2.55 µM (inactive) in the assay with MDA-MB-435; 1.95 µM (inactive) in the assay on OVCAR-8. Also, the GI50 is 1.71 µM (inactive) with SN12C; 1.69 µM (inactive) in the assay with UACC-257; 2.36 µM (inactive) in the assay with MDA-N; 26.9 µM (inactive) in the assay on OVCAR-5; 11.4 µM (inactive) with SK-MEL-2; 1.6 µM (inactive) with HOP-92. Moreover, the GI50 in the assay with EKVX was 13.9 µM (inactive); with 786-0 it was 1.55 µM (inactive).

Consider `C=C1C(=O)O[C@@H]2C[C@]3(C)CC[C@]4(C)[C@H](CC[C@@H]5[C@@]6(C)CCC(=O)C(C)(C)[C@@H]6CC[C@]54C)[C@H]3[C@H]12` [OCHRACEOLIDE A], for which the GI50 was 23.7 µM (inactive) with NCI-H23; 22.2 µM (inactive) in the assay on SF-268; 26.9 µM (inactive) with SNB-19; 17.8 µM (inactive) in the assay on SF-295; 2.1 µM (inactive) with RPMI-8226; 13.6 µM (inactive) in the assay on HCT-116. Moreover, the GI50 in the assay on HT-29 was 20.6 µM (inactive); with NCI-H522 it was 7.33 µM (inactive); in the assay with SNB-75 it was 20.7 µM (inactive); in the assay with MCF7, 4.81 µM (inactive); in the assay with MDA-MB-435, 11.2 µM (inactive); in the assay with OVCAR-8 it was 13.7 µM (inactive). Besides, the GI50 with SN12C was 17.5 µM (inactive); with UACC-257, 14.6 µM (inactive); with MDA-N it was 15.3 µM (inactive); with OVCAR-5, 18.4 µM (inactive); in the assay on SK-MEL-2 it was 22.4 µM (inactive); in the assay with HOP-92, 9.31 µM (inactive). Also, the GI50 in the assay with EKVX is 19 µM (inactive); with 786-0 it was 13.7 µM (inactive).

Consider `CCCCCc1c(CCCC)c(=O)[nH]c2cc(CNCC(OC)OC)ccc12`, for which the GI50 is 17.4 µM (inactive) with NCI-H23; 16.7 µM (inactive) with SF-268; 12.8 µM (inactive) with SNB-19; 17.2 µM (inactive) in the assay on SF-295; 4.08 µM (inactive) in the assay with RPMI-8226; 7.11 µM (inactive) in the assay on HCT-116. For the same molecule, the GI50 in the assay on HT-29 was 3.91 µM (inactive); in the assay on NCI-H522, 17.6 µM (inactive); in the assay with SNB-75, 15.6 µM (inactive); with MCF7, 12.9 µM (inactive); in the assay on MDA-MB-435, 11.4 µM (inactive); in the assay on OVCAR-8 it was 16.3 µM (inactive). For the same molecule, the GI50 in the assay on SN12C is 14.2 µM (inactive); in the assay on UACC-257 it was 4.92 µM (inactive); in the assay on MDA-N, 11.7 µM (inactive); in the assay with OVCAR-5, 14.2 µM (inactive); in the assay on SK-MEL-2, 11.7 µM (inactive); with HOP-92, 7.41 µM (inactive). In addition, the figures for the GI50 in the assay with EKVX and in the assay on 786-0 were 16.2 µM (inactive) and 4.47 µM (inactive), respectively.

In the case of `Cc1cnc2sn(-c3ccc([N+](=O)[O-])cc3)c(=O)c2c1`, the GI50 is 42.9 µM (inactive) with NCI-H23; 54.1 µM (inactive) in the assay on SF-268; 50.4 µM (inactive) in the assay on SNB-19; 45.3 µM (inactive) with SF-295; > 100 µM (inactive) in the assay on RPMI-8226; > 100 µM (inactive) in the assay on HCT-116. For the same molecule, the GI50 with HT-29 was > 100 µM (inactive); in the assay on NCI-H522, 34.7 µM (inactive); with SNB-75, 23.8 µM (inactive); in the assay on MCF7, > 100 µM (inactive); in the assay on MDA-MB-435, > 100 µM (inactive); in the assay with OVCAR-8, 43 µM (inactive). In addition, the GI50 in the assay on SN12C is > 100 µM (inactive); with MDA-N it was > 100 µM (inactive); in the assay with OVCAR-5 it was > 100 µM (inactive); in the assay on SK-MEL-2, 45.7 µM (inactive); with HOP-92, 33.3 µM (inactive); in the assay with EKVX, 74.1 µM (inactive). Also, the GI50 with 786-0 was 56.8 µM (inactive).

For `O=C1NN(c2ccccc2)C(=O)C2C3c4ccccc4C(c4ccccc43)C12` (stereo not drawn), the GI50 is > 100 µM (inactive) in the assay with NCI-H23; > 100 µM (inactive) with SF-268; > 100 µM (inactive) in the assay with SNB-19; 80 µM (inactive) in the assay on SF-295; > 100 µM (inactive) in the assay with RPMI-8226; 75 µM (inactive) in the assay on HCT-116. Besides, the GI50 was 32.7 µM (inactive) with HT-29; 49.1 µM (inactive) with NCI-H522; 26.1 µM (inactive) in the assay on SNB-75; 44.2 µM (inactive) in the assay with MCF7; > 100 µM (inactive) in the assay on MDA-MB-435; > 100 µM (inactive) in the assay on OVCAR-8. In addition, the GI50 with SN12C was 77.1 µM (inactive); in the assay with UACC-257, 27.6 µM (inactive); with MDA-N it was > 100 µM (inactive); in the assay with OVCAR-5 it was > 10 µM (inactive); in the assay with SK-MEL-2, > 100 µM (inactive); in the assay on HOP-92, > 100 µM (inactive). Besides, the GI50 in the assay on EKVX and in the assay with 786-0 was > 100 µM (inactive) throughout.

Regarding `CSc1nc(NC2OC(COC(C)=O)C(OC(C)=O)C(OC(C)=O)C2OC(C)=O)c(/N=C\C=N/c2c(NC3OC(COC(C)=O)C(OC(C)=O)C(OC(C)=O)C3OC(C)=O)nc(SC)n(C)c2=O)c(=O)n1C` (stereo not drawn), the GI50 in the assay on NCI-H23 was > 70 µM (inactive); in the assay on SF-268, 62.1 µM (inactive); with SNB-19 it was 38.6 µM (inactive); in the assay with SF-295, 33.3 µM (inactive); in the assay with RPMI-8226, > 100 µM (inactive); in the assay with HCT-116, > 100 µM (inactive). Also, the GI50 with HT-29 is > 82.2 µM (inactive); in the assay on NCI-H522, > 100 µM (inactive); in the assay with SNB-75 it was 12.2 µM (inactive); in the assay with MCF7, > 100 µM (inactive); in the assay on MDA-MB-435, > 100 µM (inactive); in the assay on OVCAR-8, 73.8 µM (inactive). Also, the GI50 in the assay with SN12C was > 92.9 µM (inactive); in the assay on UACC-257 it was > 100 µM (inactive); with MDA-N it was > 100 µM (inactive); with OVCAR-5 it was > 100 µM (inactive); with SK-MEL-2 it was 32.7 µM (inactive); in the assay on HOP-92 it was 25.9 µM (inactive). Further, the GI50 in the assay on EKVX was > 100 µM (inactive); in the assay on 786-0, 34 µM (inactive).
